Assay results reported in patent US11560455B2, “Method for rapid gelation of silk fibroin solution under physiological conditions” (SOOCHOW UNIVERSITY, priority 2017, dated 2023).

Tested on: Human umbilical vein endothelial cells (HUVECs)
Experiment: Cell viability by CCK-8 assay
Assay type: cell-based
Conditions: 24 h, NapFF 10.0-200.0 μM, silk fibroin 0.1-2.0%, FIG. 9
Method: The cell viability was detected by CCK-8 assay. Human umbilical vein endothelial cells (HUVECs) were dispersed in a 96-well plate (at a cell concentration of 4000 cells/well) and cultured for 24 h in a 5% CO2 atmosphere at 37° C. The previous medium was replaced with a medium containing different concentrations of NapFF (10.0 μM, 20.0 μM, 50.0 μM, 100.0 μM, and 200.0 μM) and silk fibroin solutions (0.1%, 0.2%, 0.5%, 1.0%, and 2.0%), which was in turn replaced with a CCK-8 solution after 24 h. Finally, the optical density value (OD value) of the solution at 450 nm was measured on a microplate reader. The cell viability is expressed as percentage of the number of control (untreated) cells. The cell viability of the control group was set to 100% by default, and all experiments were performed in 5 replications.

Structure (SMILES): O=C(Cc1ccc2ccccc2c1)N[C@@H](Cc1ccccc1)C(=O)N[C@@H](Cc1ccccc1)C(=O)O [NapFF, 2-naphthaleneacetic acid-phenylalanine-phenylalanine]
- Cytotoxicity (cell viability, CCK-8): good biocompatibility
